From patent US20140171393A1, “NOVEL AROMATIC THIO COMPOUNDS AS RECEPTOR MODULATORS” (Allergan, Inc., priority 2012, published 2014)

Target: T1, human S1P1 receptor (Homo sapiens, UniProt P21453)
T1 construct: expressed in transfected cells; membranes were used
Experiment: GTP γ35S binding assay for S1P1 activity
Format: biochemical
Details: membranes of cells stably expressing the S1P1 receptor, read-out: Activity potency: S1P1 receptor from GTP γ35S, S1P1 EC50
Experimental: Compounds were tested for S1P1 activity using the GTP γ^35S binding assay. These compounds may be assessed for their ability to activate or block activation of the human S1P1 receptor in cells stably expressing the S1P1 receptor.
GTP γ^35S binding was measured in the medium containing (mM) HEPES 25, pH 7.4, MgCl2 10, NaCl 100, dithitothreitol 0.5, digitonin 0.003%, 0.2 nM GTP γ^355, and 5 μg membrane protein in a volume of 150 μl. Test compounds were included in the concentration range from 0.08 to 5,000 nM unless indicated otherwise. Membranes were incubated with 100 μM 5′-adenylylimmidodiphosphate for 30 min, and subsequently with 10 μM GDP for 10 min on ice. Drug solutions and membrane were mixed, and then reactions were initiated by adding GTP γ^355 and continued for 30 min at 25° C. Reaction mixtures were filtered over Whatman GF/B filters under vacuum, and washed three times with 3 mL of ice-cold buffer (HEPES 25, pH7.4, MgCl2 10 and NaCl 100). Filters were dried and mixed with scintillant, and counted for ^35S activity using a 8-counter. Agonist-induced GTP γ^355 binding was obtained by subtracting that in the absence of agonist. Binding data were analyzed using a non-linear regression method. In case of antagonist assay, the reaction mixture contained 10 nM S1P in the presence of test antagonist at concentrations ranging from 0.08 to 5000 nM.

T1 sequence (P21453 whole entry): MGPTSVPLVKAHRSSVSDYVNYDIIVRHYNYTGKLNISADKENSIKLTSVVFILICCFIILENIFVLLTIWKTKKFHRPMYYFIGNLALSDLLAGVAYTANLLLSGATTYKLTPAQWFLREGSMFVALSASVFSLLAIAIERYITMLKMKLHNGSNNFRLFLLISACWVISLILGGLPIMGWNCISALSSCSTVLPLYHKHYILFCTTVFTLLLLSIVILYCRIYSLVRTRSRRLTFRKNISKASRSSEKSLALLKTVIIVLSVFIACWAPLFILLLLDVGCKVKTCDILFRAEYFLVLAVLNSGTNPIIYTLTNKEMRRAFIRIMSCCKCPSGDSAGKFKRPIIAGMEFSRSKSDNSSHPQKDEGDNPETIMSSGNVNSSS

| EC50 | SMILES |
| --- | --- |
| 1.5 nM | O=P(O)(O)CCCNCc1ccc(SCCCCCc2ccccc2)c(Cl)c1 [Compound 5, [3-({3-chloro-4-[(5-phenylpentyl)thio]benzyl}amino)propyl]phosphonic acid] |
| 41.4 nM | Cc1ccc(CCCCCSc2ccc(CNCCCP(=O)(O)O)cc2C)cc1 [Compound 23, {3-[(3-methyl-4-{[5-(4-methylphenyl)pentyl]thio}benzyl)amino]propyl}phosphonic acid] |
| 7.9 nM | O=P(O)(O)CCCNCc1ccc(SCCCCCc2ccc(Cl)cc2)c(OC(F)(F)F)c1 [Compound 14, (3-{[4-{[5-(4-chlorophenyl)pentyl]thio}-3-(trifluoromethoxy)benzyl]amino}propyl)phosphonic acid] |
| 2 nM | O=P(O)(O)CCCNCc1ccc(SCCCCC2(c3ccccc3)CCCCC2)c(Cl)c1 [Compound 164, {3-[(3-chloro-4-{[4-(1-phenylcyclohexyl)butyl]thio}benzyl)amino]propyl}phosphonic acid] |
| 1.6 nM | O=P(O)(O)CCCNCc1ccc(SCCCCCc2ccc(F)cc2)c(OC(F)(F)F)c1 [Compound 15, (3-{[4-{[5-(4-fluorophenyl)pentyl]thio}-3-(trifluoromethoxy)benzyl]amino}propyl)phosphonic acid] |
| 5.4 nM | O=P(O)(O)CCCNCc1ccc(SCCCCCc2ccc(F)cc2)c(C(F)(F)F)c1 [Compound 10, (3-{[4-{[5-(4-fluorophenyl)pentyl]thio}-3-(trifluoromethyl)benzyl]amino}propyl)phosphonic acid] |
| 3.2 nM | Cc1cc(CNCCCP(=O)(O)O)ccc1SCCCCCc1ccccc1 [Compound 20, [3-({3-methyl-4-[(5-phenylpentyl)thio]benzyl}amino)propyl]phosphonic acid] |
| 3.3 nM | O=P(O)(O)CCCNCc1ccc(SCCCCCc2ccccc2)cc1 [Compound 6, [3-({4-[(5-phenylpentyl)thio]benzyl}amino)propyl]phosphonic acid] |
| 4.6 nM | O=P(O)(O)CCCNCc1ccc(SCCCCCc2ccc(Cl)cc2)c(C(F)(F)F)c1 [Compound 13, (3-{[4-{[5-(4-chlorophenyl)pentyl]thio}-3-(trifluoromethyl)benzyl]amino}propyl)phosphonic acid] |
| 13.1 nM | CC(C)(CCCCSc1ccc(CNCCCP(=O)(O)O)cc1Br)c1ccccc1 [Compound 165, [3-({3-bromo-4-[(5-methyl-5-phenylhexyl)thio]benzyl}amino)propyl]phosphonic acid] |
| 0.3 nM | O=P(O)(O)CCCNCc1ccc(SCCCCCc2ccccc2)c(F)c1 [Compound 21, [3-({3-fluoro-4-[(5-phenylpentyl)thio]benzyl}amino)propyl]phosphonic acid] |
| 8.8 nM | CC(CCNCc1ccc(SCCCCCc2ccccc2)c(Cl)c1)P(=O)(O)O (stereo not drawn) [Compound 19, [3-({3-chloro-4-[(5-phenylpentyl)thio]benzyl}amino)-1-methylpropyl]phosphonic acid] |
| 1.8 nM | O=P(O)(O)CCCNCc1ccc(SCCCCCc2ccccc2)c(Br)c1 [Compound-1, [3-({3-bromo-4-[(5-phenylpentyl)thio]benzyl}amino)propyl]phosphonic acid] |
| 4.8 nM | O=P(O)(O)C(F)(F)CCNCc1ccc(SCCCCCc2ccccc2)c(Cl)c1 [Compound 17, [3-({3-chloro-4-[(5-phenylpentyl)thio]benzyl}amino)-1,1-difluoropropyl]phosphonic acid] |
| 13.6 nM | O=P(O)(O)C(F)(F)CCNCc1ccc(SCCCCCc2ccccc2)c(OC(F)(F)F)c1 [Compound 18, [1,1-difluoro-3-({4-[(5-phenylpentyl)thio]-3-(trifluoromethoxy)benzyl}amino)propyl]phosphonic acid] |
| 0.9 nM | O=P(O)(O)CCCNCc1cc(F)c(SCCCCC2(c3ccccc3)CCCCC2)cc1F [Compound 50, {3-[(2,5-difluoro-4-{[4-(1-phenylcyclohexyl)butyl]thio}benzyl)amino]propyl}phosphonic acid] |
| 6.1 nM | N#Cc1cc(CNCCCP(=O)(O)O)ccc1SCCCCCc1ccccc1 [Compound 8, [3-({3-cyano-4-[(5-phenylpentyl)thio]benzyl}amino)propyl]phosphonic acid] |
| 2.4 nM | N#Cc1cc(CNCCCP(=O)(O)O)ccc1SCCCCCc1ccc(F)cc1 [Compound 22, {3-[(3-cyano-4-{[5-(4-fluorophenyl)pentyl]thio}benzyl)amino]propyl}phosphonic acid] |
| 8.7 nM | O=P(O)(O)CCCNCc1ccc(SCCCCCc2ccc(F)cc2)cc1C(F)(F)F [Compound 24, (3-{[4-{[5-(4-fluorophenyl)pentyl]thio}-2-(trifluoromethyl)benzyl]amino}propyl)phosphonic acid] |
| 27.2 nM | Cc1cc(CNCCCP(=O)(O)O)ccc1SCCCCCc1ccc(F)cc1 [Compound 9, {3-[(4-{[5-(4-fluorophenyl)pentyl]thio}-3-methylbenzyl)amino]propyl}phosphonic acid] |
| 3.5 nM | Cc1ccc(CCCCCSc2ccc(CNCCCP(=O)(O)O)cc2OC(F)(F)F)cc1 [Compound 16, (3-{[4-{[5-(4-methylphenyl)pentyl]thio}-3 (trifluoromethoxy)benzyl]amino}propyl)phosphonic acid] |
| 13.6 nM | O=P(O)(O)CCCNCc1ccc(SCCCCCc2ccccc2)cc1C(F)(F)F [Compound 3, [3-({4-[(5-phenylpentyl)thio]-2-(trifluoromethyl)benzyl}amino)propyl]phosphonic acid] |
| 0.6 nM | O=P(O)(O)CCCNCc1ccc(SCCCCCc2ccccc2)c(OC(F)(F)F)c1 [Compound 7, [3-({4-[(5-phenylpentyl)thio]-3-(trifluoromethoxy)benzyl}amino)propyl]phosphonic acid] |
| 2.2 nM | O=P(O)(O)CCCNCc1ccc(SCCCCCc2ccccc2)cc1Cl [Compound 4, [3-({2-chloro-4-[(5-phenylpentyl)thio]benzyl}amino)propyl]phosphonic acid] |
| 60.6 nM | COc1ccc(CCCCCSc2ccc(CNCCCP(=O)(O)O)cc2C(F)(F)F)cc1 [Compound 11, (3-{[4-{[5-(4-methoxyphenyl)pentyl]thio}-3-(trifluoromethyl)benzyl]amino}propyl)phosphonic acid] |
| 67.9 nM | COc1ccc(CCCCCSc2ccc(CNCCCP(=O)(O)O)cc2OC(F)(F)F)cc1 [Compound 163, (3-{[4-{[5-(4-methoxyphenyl)pentyl]thio}-3-(trifluoromethoxy)benzyl]amino}propyl)phosphonic acid] |

Tested on: blood lymphocytes
Experiment: Lymphopenia assay in mice
Format: in vivo
Details: 10 mg/Kg subcutaneously, female C57BL6 mice, after 5 hours, FIG. 1
Experimental: Test drugs are prepared in a solution containing 3% (w/v) 2-hydroxy propyl β-cyclodextrin (HPBCD) and 1% DMSO to a final concentration of 1 mg/ml, and subcutaneously injected to female C57BL6 mice (CHARLES RIVERS) weighing 20-25 g at the dose of 0.5 to 10 mg/Kg. Blood samples are obtained by puncturing the submandibular skin with a Goldenrod animal lancet at 5, 24, 48, 72, and 96 hrs post drug application. Blood is collected into microvettes (SARSTEDT) containing EDTA tripotassium salt. Lymphocytes in blood samples are counted using a HEMAVET Multispecies Hematology System, HEMAVET HV950FS (Drew Scientific Inc.).
A lymphopenia assay in mice; as previously described, was employed to measure the in vivo blood lymphocyte depletion after dosing with the test compound: [3-({3-bromo-4-[(5-phenylpentyl)thio]benzyl}amino)propyl]phosphonic acid Compound-1. This S1P1 modulator, [3-({3-bromo-4-[(5-phenylpentyl)thio]benzyl}amino)propyl]phosphonic acid Compound-1 is useful for S1P-related diseases and exemplified by the lymphopenia in vivo response. […] Lymphocytes in blood samples were counted using a HEMAVET Multispecies Hematology System, HEMAVET HV950FS (Drew Scientific Inc.). […]

| SMILES | lymphocyte count (number of lymphocytes in blood) |
| --- | --- |
| O=P(O)(O)CCCNCc1ccc(SCCCCCc2ccccc2)c(Br)c1 [Compound-1, [3-({3-bromo-4-[(5-phenylpentyl)thio]benzyl}amino)propyl]phosphonic acid] | < 1 10^3/μL blood |
